According to US20120232062A1, “AZAINDAZOLES TO TREAT FLAVIVIRIDAE VIRUS INFECTION” (EIGER BIOPHARMACEUTICALS, INC., priority 2009, published 2012):

Legend:
Type in all cases: in vitro ADME
Settings in all cases: human liver microsomes; >75 = low level of inhibition
[1] = target: T1, CYP 3A4 (Homo sapiens, UniProt P08684); experiment: CYP inhibition testing, CYP 3A4
T1 construct: For human liver microsome solution, a stock solution (20 mg/mL (4×final)) is used; from tissue; host or cells: human liver microsomes
Procedure: (§1) Select compounds are tested for CYP inhibition against five different CYP enzymes: CYP 1A2, CYP 2C9, CYP 2C19, CYP 2D6, CYP 3A4. Individual CYP enzymes are incubated with corresponding substrates with no inhibitor (negative control). Individual CYP enzymes are then incubated with corresponding substrates in the presence of test compound. […] Values of 70>v, w, x, y, z>30 indicate moderate level of inhibition of the corresponding enzyme.
(§2) The following reagents are used: Sodium Phosphate, monobasic; Sodium Phosphate, dibasic; β-Nicotinamide Adenine Dinucleotide Phosphate-Reduced (NADPH), Roche; Milli-Q Water; 0.1 M Potassium phosphate buffer (K-buffer), pH 7.4. The following stock solutions are used. Stock A (136.5 g of monobasic potassium phosphate in 1 L of Milli-Q water (1.0 M)). Stock B (174.2 g of dibasic potassium phosphate in 1 L of Milli-Q water (1.0 M)). 40.5 mL of Stock B is mixed with 9.5 mL of Stock A, and the total volume brought near 500 mL with Milli-Q water to give 0.1 M potassium phosphate buffer. The buffer is titrated with KOH or H3PO4 to pH 7.4. To prepare a cofactor buffer (4×, 8 mM NADPH), 66.7 mg of NADPH tetrasodium salt is dissolved in 10 mL of K-buffer. For human liver microsome solution, a stock solution (20 mg/mL (4×final)) is used.
(§3) The following Positive control stock solutions are prepared: 0.3 mM α-Naphthoflavone (MW: 272.3, 0.0817 mg of α-Naphthoflavone in 1 mL DMSO), 10 mM Sulfaphenazole (MW: 314.4, 3.14 mg of sulfaphenazole in 1 mL DMSO) 100 mM Omeprazole (MW: 345.4, 34.54 mg of omeprazole in 1 mL DMSO), 2.5 mM Quinidine (MW: 324, 0.81 mg of quinidine in 1 mL DMSO), and 2.5 mM Ketoconazole (MW: 531.4, 1.33 mg of ketoconazole in 1 mL DMSO).
(§4) The following substrate stock solutions are prepared: 6 mM Phenacetin (MW: 179.22, 1.075 mg of phenacetin in 1 mL can), 10 mM Diclofenac (MW: 318.83, 3.18 mg of Diclofenac in 1 ml H2O), 35 mM S-Mephenyloin (MW: 218.25, 7.64 mg of s-mephenyloin in 1 mL ACN 10 mM Bufuralol (MW: 297.82, 2.98 mg of Bufuralol in 1 ml H2O), 1 mM Midazolam (MW: 325.77, 0.326 mg of midazolam in 1 mL can), and 10 mM Testosterone (MW: 288.42, 2.88 mg of Testosterone in 1 ml ACN.
(§5) Test compounds and reference compounds (positive control) are prepared in 0.2 mg/ml liver microsome solution. A 0.2 mg/ml liver microsome solution (2×final) is prepared from stock solution by adding 10 μL microsome stock solutions (20 mg/ml) in 990 μL K-buffer. 8 μL of 10 mM test compound stock solution (in DMSO or other solvent at various concentrations) is diluted with 12 μL ACN to make 4 mM solutions. 1:3 serial dilutions are performed using DMSO/ACN (40:60) from 4 mM solution further down seven concentration points (400×final): 4 mM, 1.33 mM, 0.44 mM, 0.148 mM, […], 0.0165 mM, 0.00549 mM, 0 mM. […]

[2] = target: T2, CYP 2C19 (Homo sapiens, UniProt P33261); experiment: CYP inhibition testing, CYP 2C19
T2 construct: For human liver microsome solution, a stock solution (20 mg/mL (4×final)) is used; from tissue; host or cells: human liver microsomes
Procedure: as §1, §2, §3, §4, §5

[3] = target: T3, CYP 1A2 (Homo sapiens, UniProt P05177); experiment: CYP inhibition testing, CYP 1A2
T3 construct: For human liver microsome solution, a stock solution (20 mg/mL (4×final)) is used; from tissue; host or cells: human liver microsomes
T3 sequence (P05177 1-516): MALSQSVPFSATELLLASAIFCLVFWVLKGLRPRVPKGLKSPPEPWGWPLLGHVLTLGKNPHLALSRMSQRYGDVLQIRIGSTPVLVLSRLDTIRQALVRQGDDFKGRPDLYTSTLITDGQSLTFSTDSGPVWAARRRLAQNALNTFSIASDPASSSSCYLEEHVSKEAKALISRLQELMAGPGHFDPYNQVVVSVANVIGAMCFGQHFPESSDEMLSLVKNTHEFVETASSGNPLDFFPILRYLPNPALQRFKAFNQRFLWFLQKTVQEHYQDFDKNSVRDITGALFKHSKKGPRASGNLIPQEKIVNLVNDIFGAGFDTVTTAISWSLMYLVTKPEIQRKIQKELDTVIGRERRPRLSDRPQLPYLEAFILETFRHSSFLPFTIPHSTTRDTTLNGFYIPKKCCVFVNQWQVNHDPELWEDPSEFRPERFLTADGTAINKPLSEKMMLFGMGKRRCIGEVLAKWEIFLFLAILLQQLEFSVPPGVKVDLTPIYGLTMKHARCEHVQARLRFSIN
Procedure: as §1, §2, §3, §4, §5

[4] = target: T4, CYP 2C9 (Homo sapiens, UniProt P11712); experiment: CYP inhibition testing, CYP 2C9
T4 construct: For human liver microsome solution, a stock solution (20 mg/mL (4×final)) is used; from tissue; host or cells: human liver microsomes
Procedure: as §1, §2, §3, §4, §5

[5] = target: T5, CYP 2D6 (Homo sapiens, UniProt P10635); experiment: CYP inhibition testing, CYP 2D6
T5 construct: For human liver microsome solution, a stock solution (20 mg/mL (4×final)) is used; from tissue; host or cells: human liver microsomes
Procedure: as §1, §2, §3, §4, §5

T5 sequence (P10635 whole entry): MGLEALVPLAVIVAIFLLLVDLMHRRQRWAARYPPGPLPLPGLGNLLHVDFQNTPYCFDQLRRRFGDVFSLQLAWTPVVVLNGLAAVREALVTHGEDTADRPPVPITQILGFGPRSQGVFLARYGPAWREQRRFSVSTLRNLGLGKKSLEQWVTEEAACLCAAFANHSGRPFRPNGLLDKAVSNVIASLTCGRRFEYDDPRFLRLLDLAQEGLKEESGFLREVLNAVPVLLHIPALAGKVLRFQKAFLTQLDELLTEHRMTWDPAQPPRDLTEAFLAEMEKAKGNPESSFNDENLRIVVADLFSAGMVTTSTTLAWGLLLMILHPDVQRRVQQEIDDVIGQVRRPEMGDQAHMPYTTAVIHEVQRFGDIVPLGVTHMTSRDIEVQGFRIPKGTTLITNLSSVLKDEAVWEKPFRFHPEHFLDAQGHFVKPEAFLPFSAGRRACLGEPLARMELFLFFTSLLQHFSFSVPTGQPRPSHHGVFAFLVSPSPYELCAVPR
T4 sequence (P11712 whole entry): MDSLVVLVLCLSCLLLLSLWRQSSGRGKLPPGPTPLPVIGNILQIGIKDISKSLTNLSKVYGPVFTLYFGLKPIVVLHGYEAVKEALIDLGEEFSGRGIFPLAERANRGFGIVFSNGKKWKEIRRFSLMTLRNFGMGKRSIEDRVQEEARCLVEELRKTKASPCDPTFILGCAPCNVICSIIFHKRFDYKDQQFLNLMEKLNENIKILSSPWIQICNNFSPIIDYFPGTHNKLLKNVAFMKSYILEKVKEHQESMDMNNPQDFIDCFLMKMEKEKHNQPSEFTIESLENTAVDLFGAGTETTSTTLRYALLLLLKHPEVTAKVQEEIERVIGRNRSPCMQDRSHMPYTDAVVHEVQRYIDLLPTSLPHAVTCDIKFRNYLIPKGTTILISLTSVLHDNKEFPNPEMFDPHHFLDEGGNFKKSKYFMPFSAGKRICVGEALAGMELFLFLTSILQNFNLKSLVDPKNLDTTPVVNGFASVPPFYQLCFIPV
T1 sequence (P08684 whole entry): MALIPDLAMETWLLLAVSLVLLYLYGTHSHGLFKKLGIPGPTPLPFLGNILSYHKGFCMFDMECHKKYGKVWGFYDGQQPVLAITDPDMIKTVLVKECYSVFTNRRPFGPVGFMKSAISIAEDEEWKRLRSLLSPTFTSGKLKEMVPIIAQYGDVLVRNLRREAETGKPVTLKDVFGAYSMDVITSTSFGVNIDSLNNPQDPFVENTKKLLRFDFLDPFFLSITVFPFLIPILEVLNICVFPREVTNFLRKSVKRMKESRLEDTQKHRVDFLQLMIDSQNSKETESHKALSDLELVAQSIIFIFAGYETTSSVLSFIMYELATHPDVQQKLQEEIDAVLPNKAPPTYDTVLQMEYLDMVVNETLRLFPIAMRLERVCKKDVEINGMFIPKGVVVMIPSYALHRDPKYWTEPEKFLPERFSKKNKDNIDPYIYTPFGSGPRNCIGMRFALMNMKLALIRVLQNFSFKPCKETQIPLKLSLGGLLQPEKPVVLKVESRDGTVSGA
T2 sequence (P33261 whole entry): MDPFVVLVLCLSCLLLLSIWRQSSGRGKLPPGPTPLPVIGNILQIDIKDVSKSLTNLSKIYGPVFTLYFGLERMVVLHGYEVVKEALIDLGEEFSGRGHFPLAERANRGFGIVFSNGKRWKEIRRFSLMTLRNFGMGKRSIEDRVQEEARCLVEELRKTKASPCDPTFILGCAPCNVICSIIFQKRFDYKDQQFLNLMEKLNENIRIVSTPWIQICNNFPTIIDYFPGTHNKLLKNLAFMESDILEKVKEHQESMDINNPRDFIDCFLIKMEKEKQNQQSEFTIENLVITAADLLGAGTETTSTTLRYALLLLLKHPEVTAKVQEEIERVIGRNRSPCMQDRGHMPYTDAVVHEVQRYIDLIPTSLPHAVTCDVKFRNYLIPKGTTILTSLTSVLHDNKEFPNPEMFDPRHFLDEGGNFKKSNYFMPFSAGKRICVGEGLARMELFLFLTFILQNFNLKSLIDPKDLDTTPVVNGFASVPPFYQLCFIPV

Structure (SMILES)	CYP (% negative controls) 3A4 [1]	CYP (% negative controls) 2C19 [2]	CYP (% negative controls) 1A2 [3]	CYP (% negative controls) 2C9 [4]	CYP (% negative controls) 2D6 [5]
Cn1nc(C(=O)NC2CCNCC2)c2ccc(N3CCCCCC3)nc21.O=C(O)C(F)(F)F.O=C(O)C(F)(F)F [compound 697]	110 % negative controls	78 % negative controls	97 % negative controls	92 % negative controls	80 % negative controls
CCC(CC)Oc1ccc2c(C(=O)NC3CCNCC3)n[nH]c2n1 [compound 726]	60 % negative controls	74 % negative controls	102 % negative controls	84 % negative controls	72 % negative controls
Cn1nc(C(=O)NC2CCN(CCN3CCCCC3)CC2)c2ccc(N3CCCCCC3)nc21 [compound 1047]	113 % negative controls	92 % negative controls	98 % negative controls	91 % negative controls	72 % negative controls
Cn1nc(CCCN2CCCC2)c2ccc(N3CCCCCCC3)nc21 [compound 1171]	67 % negative controls	72 % negative controls	104 % negative controls	141 % negative controls	62 % negative controls
